Peptide text beside a SMILES is read from it.
Legend:
Assay type in all cases: cell-based
[1] = target: T1, PrRPR N298A (Homo sapiens, UniProt P49683, N298A); assay: BRET2 Gi dissociation, N298A; conditions: N298A (6.55), Gi-coupling, AD293 cells; mean ± S.E.M., n = 3; P 0.0022 vs WT; read-out: BRET2 pEC50 (converted)
T1 construct: Flag; expressed in transfected cells; host or cells: AD293 cells
Protocol: (§1) AD293 cells (Agilent) were propagated in Dulbecco’s Modified Eagle Medium (DMEM, Thermo Fisher Scientific), enriched with 10% fetal bovine serum (FBS, Thermo Fisher Scientific), and maintained at 37 °C in a 5% CO2 environment. Cells were then seeded in 6-well dishes at a density of 130,000–150,000 cells per mL and allowed to incubate overnight. On the next day, cells were transfected with plasmids at a 1:1:1:1 ratio for receptor:Gα-RLuc8:Gβ:Gγ-GFP2[52]. PEI MAX 40 K (BIOHUB) was utilized to form complex with the plasmids at a ratio of 3 µL PEI per µg of plasmids, in OptiMEM (Gibco-Thermo Fisher Scientific) at a concentration of 10 ng plasmids per µL OptiMEM. After 24 h of incubation, the culture was harvested by centrifugation with PBS. The cell suspension was then allocated into a white 384-well plate at a volume of 30 µL per well, followed by the addition of 10 µL of freshly prepared 50 µM coelenterazine 400a (Yeasen). Following a 15-min equilibration period, cells were treated with 10 µL of ligand for an additional 5 min. Plates were subsequently read in a BioTek Synergy H1 microplate reader (BioTek) equipped with 395 nm (RLuc8-coelenterazine 400a) and 510 nm (GFP2) emission filters. BRET2 ratios were calculated as the ratio of the GFP2 emission to RLuc8 emission. Data were normalized to the baseline response of the ligand. […]

[2] = target: T2, PrRPR L294A (Homo sapiens, UniProt P49683, L294A); assay: BRET2 Gi dissociation, L294A; conditions: L294A (6.51), Gi-coupling, AD293 cells; mean ± S.E.M., n = 3; P 0.2845 vs WT; read-out: BRET2 pEC50 (converted)
T2 construct: Flag; expressed in transfected cells; host or cells: AD293 cells
T2 sequence (P49683 whole entry L294A): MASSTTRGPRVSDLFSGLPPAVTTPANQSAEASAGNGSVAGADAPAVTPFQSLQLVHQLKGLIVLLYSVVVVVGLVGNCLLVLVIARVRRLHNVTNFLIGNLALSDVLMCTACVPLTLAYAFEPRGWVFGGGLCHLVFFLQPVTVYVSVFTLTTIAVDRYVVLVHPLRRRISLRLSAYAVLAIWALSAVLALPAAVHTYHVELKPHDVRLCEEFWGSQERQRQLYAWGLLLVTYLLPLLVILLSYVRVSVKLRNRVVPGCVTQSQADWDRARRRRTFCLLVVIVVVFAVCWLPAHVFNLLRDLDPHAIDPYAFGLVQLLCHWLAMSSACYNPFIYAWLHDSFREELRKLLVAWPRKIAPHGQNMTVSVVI
Protocol: as §1

[3] = target: T3, PrRPR V145A (Homo sapiens, UniProt P49683, V145A); assay: BRET2 Gq dissociation, V145A; conditions: V145A (3.36), Gq-coupling, AD293 cells; mean ± S.E.M., n = 3; P <0.0001 vs WT; read-out: BRET2 pEC50 (converted)
T3 construct: expressed in transfected cells; host or cells: AD293 cells
T3 sequence (P49683 whole entry V145A): as the sequence (P49683 whole entry L294A) above, with V145A, A294L counted along it
Protocol: as §1, with “Following a 15-min equilibration period, cells were treated with 10 µL of ligand for an additional 5 min.” left out, “emission.” for “emission. Data were normalized to the baseline response of the ligand.”
(§2) Supplementary Fig. S4 | Effects of mutations in the ligand-binding pocket and G protein intereface of Gq coupled PrRPR by BRET2 assay. […] BRET2 assay signals were measured after stimulation with PrRP20. […]

[4] = target: T4, PrRPR Q317A (Homo sapiens, UniProt P49683, Q317A); assay: BRET2 Gq dissociation, Q317A; conditions: Q317A (7.35), Gq-coupling, AD293 cells; mean ± S.E.M., n = 3; P <0.0001 vs WT; read-out: BRET2 pEC50 (converted)
T4 construct: Flag; expressed in transfected cells; host or cells: AD293 cells
T4 sequence (P49683 whole entry Q317A): as the sequence (P49683 whole entry L294A) above, with A294L, Q317A counted along it
Protocol: as §1, with “Following a 15-min equilibration period, cells were treated with 10 µL of ligand for an additional 5 min.” left out, “emission.” for “emission. Data were normalized to the baseline response of the ligand.”
as §2

[5] = target: T1, PrRPR N298A; assay: BRET2 Gq dissociation, N298A; conditions: N298A (6.55), Gq-coupling, AD293 cells; mean ± S.E.M., n = 3; P 0.0042 vs WT; read-out: BRET2 pEC50 (converted)
Protocol: as §1, with “Following a 15-min equilibration period, cells were treated with 10 µL of ligand for an additional 5 min.” left out, “emission.” for “emission. Data were normalized to the baseline response of the ligand.”
as §2

[6] = target: T5, PrRPR L203A (Homo sapiens, UniProt P49683, L203A); assay: BRET2 Gq dissociation, L203A; conditions: L203A (ECL2), Gq-coupling, AD293 cells; mean ± S.E.M., n = 3; P 0.0021 vs WT; read-out: BRET2 pEC50 (converted)
T5 construct: expressed in transfected cells; host or cells: AD293 cells
T5 sequence (P49683 whole entry L203A): as the sequence (P49683 whole entry L294A) above, with L203A, A294L counted along it
Protocol: as §1, with “Following a 15-min equilibration period, cells were treated with 10 µL of ligand for an additional 5 min.” left out, “emission.” for “emission. Data were normalized to the baseline response of the ligand.”
as §2

[7] = target: T6, PrRPR T233A (Homo sapiens, UniProt P49683, T233A); assay: BRET2 Gi dissociation, T233A; conditions: T233A (5.46), Gi-coupling, AD293 cells; mean ± S.E.M., n = 3; P <0.0001 vs WT; read-out: BRET2 pEC50 (converted)
T6 construct: Flag; expressed in transfected cells; host or cells: AD293 cells
T6 sequence (P49683 whole entry T233A): as the sequence (P49683 whole entry L294A) above, with T233A, A294L counted along it
Protocol: as §1

[8] = target: T7, PrRPR Q141A (Homo sapiens, UniProt P49683, Q141A); assay: BRET2 Gi dissociation, Q141A; conditions: Q141A (3.32), Gi-coupling, AD293 cells; mean ± S.E.M., n = 3; P 0.0002 vs WT; read-out: BRET2 pEC50 (converted)
T7 construct: expressed in transfected cells; host or cells: AD293 cells
T7 sequence (P49683 whole entry Q141A): as the sequence (P49683 whole entry L294A) above, with Q141A, A294L counted along it
Protocol: as §1

[9] = target: T8, PrRPR E213A (Homo sapiens, UniProt P49683, E213A); assay: BRET2 Gi dissociation, E213A; conditions: E213A (45.52), Gi-coupling, AD293 cells; mean ± S.E.M., n = 3; P <0.0001 vs WT; read-out: BRET2 pEC50 (converted)
T8 construct: expressed in transfected cells; host or cells: AD293 cells
T8 sequence (P49683 whole entry E213A): as the sequence (P49683 whole entry L294A) above, with E213A, A294L counted along it
Protocol: as §1

[10] = target: T9, PrRPR V208A (Homo sapiens, UniProt P49683, V208A); assay: BRET2 Gq dissociation, V208A; conditions: V208A (ECL2), Gq-coupling, AD293 cells; mean ± S.E.M., n = 3; P 0.0347 vs WT; read-out: BRET2 pEC50 (converted)
T9 construct: expressed in transfected cells; host or cells: AD293 cells
T9 sequence (P49683 whole entry V208A): as the sequence (P49683 whole entry L294A) above, with V208A, A294L counted along it
Protocol: as §1, with “Following a 15-min equilibration period, cells were treated with 10 µL of ligand for an additional 5 min.” left out, “emission.” for “emission. Data were normalized to the baseline response of the ligand.”
as §2

[11] = target: T4, PrRPR Q317A; assay: BRET2 Gi dissociation, Q317A; conditions: Q317A (7.35), Gi-coupling, AD293 cells; mean ± S.E.M., n = 3; P <0.0001 vs WT; read-out: BRET2 pEC50 (converted)
Protocol: as §1

[12] = target: T10, PrRPR Y225A (Homo sapiens, UniProt P49683, Y225A); assay: BRET2 Gi dissociation, Y225A; conditions: Y225A (5.38), Gi-coupling, AD293 cells; mean ± S.E.M., n = 3; P <0.0001 vs WT; read-out: BRET2 pEC50 (converted)
T10 construct: Flag; expressed in transfected cells; host or cells: AD293 cells
T10 sequence (P49683 whole entry Y225A): as the sequence (P49683 whole entry L294A) above, with Y225A, A294L counted along it
Protocol: as §1

T1 sequence (P49683 whole entry N298A): as the sequence (P49683 whole entry L294A) above, with A294L, N298A counted along it

CC[C@H](C)[C@H](NC(=O)CNC(=O)[C@H](CCCNC(=N)N)NC(=O)[C@H](CO)NC(=O)[C@H](C)NC(=O)[C@H](Cc1ccc(O)cc1)NC(=O)[C@H](Cc1c[nH]c2ccccc12)NC(=O)[C@H](C)NC(=O)[C@@H]1CCCN1C(=O)[C@H](CC(N)=O)NC(=O)[C@@H](NC(=O)[C@H](CC(=O)O)NC(=O)[C@@H]1CCCN1C(=O)[C@@H](N)[C@@H](C)O)[C@@H](C)CC)C(=O)N[C@@H](CCCNC(=N)N)C(=O)N1CCC[C@H]1C(=O)N[C@H](C(=O)NCC(=O)N[C@@H](CCCNC(=N)N)C(=O)N[C@@H](Cc1ccccc1)C(N)=O)C(C)C [PrRP20] (H-TPDINPAWYASRGIRPVGRF-NH2)
EC50 [1]: 6.31 nM | EC50 [2]: 3.72 nM | EC50 [3]: 4.79 nM | EC50 [4]: 309 nM | EC50 [5]: 2.95 nM | EC50 [6]: 3.09 nM | EC50 [7]: 18.6 nM | EC50 [8]: 7.59 nM | EC50 [9]: 1380 nM | EC50 [10]: 2.45 nM | EC50 [11]: 4170 nM | EC50 [12]: 550 nM
